According to patent US20180318311A1, “TRICYCLIC 2-QUINOLINONES AS ANTIBACTERIALS” (priority 2017, published 2018):
≈ marks a conversion by molar mass, not a printed value. Counter-ions that a name gives are not always drawn. Like-named read-outs stand apart in the source and are kept apart here.

Tests used:
Type in all cases: cell-based
[1] = tested on: S. aureus ATCC 49951 (NB01006); assay: MIC by broth microdilution, S. aureus NB01006; conditions: Staphylococcus aureus, ATCC49951, CAMHB, 35° C., 20 hours, read-out: Antibacterial activity (MIC) NB01006
Method in brief: (§1)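 CLSI broth microdilution in CAMHB, inoculum ~5×10^5 CFU/mL, two-fold compound dilutions at 1% final DMSO. Plates incubated 20 h at 35°C in ambient air; MIC (μg/mL) is the lowest concentration preventing visible growth, confirmed by OD600.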

[2] = tested on: E. coli ATCC 25922 (NB27001); assay: MIC by broth microdilution, E. coli NB27001; conditions: Escherichia coli, ATCC25922, CAMHB, 35° C., 20 hours, read-out: Antibacterial activity (MIC) NB27001
Method in brief: as §1

[3] = tested on: S. aureus NB01080 fluoroquinolone-resistant clinical isolate; assay: MIC by broth microdilution, S. aureus NB01080; conditions: Staphylococcus aureus, CAMHB, 35° C., 20 hours, read-out: Antibacterial activity (MIC) NB01080
Method in brief: as §1

[4] = tested on: P. aeruginosa NB52019, wild-type PAO1 strain; assay: MIC by broth microdilution, P. aeruginosa NB52019; conditions: Pseudomonas aeruginosa, CAMHB, 35° C., 20 hours, read-out: Antibacterial activity (MIC) NB52019
Method in brief: as §1

[5] = tested on: S. pneumoniae ATCC 25922 (NB07001); assay: MIC by broth microdilution, S. pneumoniae NB07001; conditions: Streptococcus pneumoniae, read-out: Antibacterial activity (MIC) NB07001
Method in brief: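 MIC in μg/mL taken as the lowest concentration with no visible growth, checked by 600 nm reading after 20 h at 35°C, ambient air. Strains tested per CLSI microdilution in cation-adjusted Mueller-Hinton broth at about 5×10^5 CFU/mL, compounds as two-fold series, 1% DMSO final.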

[6] = tested on: S. aureus NB01006-AVR005, gyrA (S84L), grlA (580F) and grlB (E471K); assay: microbe, parasite or virus in culture; conditions: Staphylococcus aureus, 20 h, read-out: Antibacterial activity (MIC) NB01006-AVR005
Method in brief: as §1

[7] = tested on: E. faecalis ATCC 29212 (NB04001); assay: MIC by broth microdilution, E. faecalis NB04001; conditions: Enterococcus faecalis, ATCC29212, CAMHB, 35° C., 20 hours, read-out: Antibacterial activity (MIC) NB04001
Method in brief: as §1

| SMILES | MIC [1] [µg/mL] | MIC [2] [µg/mL] | MIC [3] [µg/mL] | MIC [4] [µg/mL] | MIC ([5]; ATCC25922, 20 h) [µg/mL] | MIC [6] [µg/mL] | MIC [7] [µg/mL] | MIC ([5]; ATCC25922, S. pneumoniae, CAMHB supplemented with 5% lysed horse blood, 35° C., 20 hours) [µg/mL] |
| --- | --- | --- | --- | --- | --- | --- | --- | --- |
| C[C@H]1COc2c(N3CCN4CC(F)(F)C[C@H]4C3)c(F)cc3cc(C(=O)O)c(=O)n1c23 [Example 1.72, (S)-10-((S)-7,7-difluorohexahydropyrrolo [1,2-a]pyrazin-2(1H)-yl)-9-fluoro-3-methyl-5-oxo-2,3-dihydro-5H-[1,4]oxazino[2,3,4-ij]quinoline-6-carboxylic acid] | 1 to 32 (≈ 2.36 to 75.6 µM) | > 32 | > 32 | > 32 | > 32 | > 32 | > 32 |  |
| COC[C@H]1COc2c(N3CC[C@@H](C4(N)CC4)C3)c(F)cc3cc(C(=O)O)c(=O)n1c23.O=CO [Example 3, (S)-10-((R)-3-(1-aminocyclopropyl)pyrrolidin-1-yl)-9-fluoro-3-(methoxymethyl)-5-oxo-2,3-dihydro-5H-[1,4]oxazino[2,3,4-ij]quinoline-6-carboxylic acid formate salt] | > 32 | > 32 | > 32 | > 32 |  | > 32 | > 32 | > 32 |
| C[C@H]1COc2c(N3CCN(C)CC3)c(F)cc3cc(C(=O)O)c(=O)n1c23 [Example 1.4, (S)-9-fluoro-3-methyl-10-(4-methylpiperazin-1-yl)-5-oxo-2,3-dihydro-5H-[1,4]oxazino[2,3,4-ij]quinoline-6-carboxylic acid] | 1 to 32 (≈ 2.77 to 88.6 µM) | 1 to 32 (≈ 2.77 to 88.6 µM) | > 32 | > 32 | > 32 | > 32 | > 32 |  |
| C[C@H]1COc2c(N3CCCC4(CCN(C)C4)C3)c(F)cc3cc(C(=O)O)c(=O)n1c23 (mixture of isomers) [Example 1.70, (3S)-9-fluoro-3-methyl-10-(2-methyl-2,7-diazaspiro[4.5]decan-7-yl)-5-oxo-2,3-dihydro-5H-[1,4]oxazino[2,3,4-ij]quinoline-6-carboxylic acid] | 1 to 32 | > 32 | > 32 | > 32 | 1 to 32 | > 32 | > 32 |  |
| C[C@H]1COc2c(N3CCC(C4CC4N)CC3)c(F)cc3cc(C(=O)O)c(=O)n1c23 (mixture of isomers) [Example 1.64, (3S)-10-(4-(2-aminocyclopropyl)piperidin-1-yl)-9-fluoro-3-methyl-5-oxo-2,3-dihydro-5H-[1,4]oxazino[2,3,4-ij]quinoline-6-carboxylic acid] | 1 to 32 | > 32 | > 32 | > 32 | 1 to 32 | > 32 | 1 to 32 |  |
| C[C@@H]1CN(c2c(F)cc3cc(C(=O)O)c(=O)n4c3c2OC[C@@H]4C)C[C@@]1(C)CN [Example 1.58, (S)-10-((3R,4S)-3-(aminomethyl)-3,4-dimethylpyrrolidin-1-yl)-9-fluoro-3-methyl-5-oxo-2,3-dihydro-5H-[1,4]oxazino[2,3,4-ij]quinoline-6-carboxylic acid] | < 1 | 1 to 32 (≈ 2.57 to 82.2 µM) | 1 to 32 (≈ 2.57 to 82.2 µM) | > 32 | 1 to 32 (≈ 2.57 to 82.2 µM) | 1 to 32 (≈ 2.57 to 82.2 µM) | 1 to 32 (≈ 2.57 to 82.2 µM) |  |
| C[C@H]1COc2c(N3CCC(CNC4CC4)C3)c(F)cc3cc(C(=O)O)c(=O)n1c23 (mixture of isomers) [Example 1.11, (3S)-10-(3-((cyclopropylamino)methyl)pyrrolidin-1-yl)-9-fluoro-3-methyl-5-oxo-2,3-dihydro-5H-[1,4]oxazino[2,3,4-ij]quinoline-6-carboxylic acid] | 1 to 32 | 1 to 32 | 1 to 32 | > 32 | < 1 | > 32 | 1 to 32 |  |
| CO/N=C1\CN(c2c(F)cc3cc(C(=O)O)c(=O)n4c3c2OC[C@@H]4C)CC1CN (stereo partly drawn) [Example 1.40, (3S)-10-((Z)-3-(aminomethyl)-4-(methoxyimino)pyrrolidin-1-yl)-9-fluoro-3-methyl-5-oxo-2,3-dihydro-5H-[1,4]oxazino[2,3,4-ij]quinoline-6-carboxylic acid] | 1 to 32 (≈ 2.47 to 79.1 µM) | 1 to 32 (≈ 2.47 to 79.1 µM) | 1 to 32 (≈ 2.47 to 79.1 µM) | > 32 | < 1 | 1 to 32 (≈ 2.47 to 79.1 µM) | 1 to 32 (≈ 2.47 to 79.1 µM) |  |
| C[C@H]1COc2c(N3CC[C@H](C4(N)CC4)C3)c(F)cc3cc(C(=O)O)c(=O)n1c23 [Example 1.35, (S)-10-((S)-3-(1-aminocyclopropyl)pyrrolidin-1-yl)-9-fluoro-3-methyl-5-oxo-2,3-dihydro-5H-[1,4]oxazino[2,3,4-ij]quinoline-6-carboxylic acid] | 1 to 32 (≈ 2.58 to 82.6 µM) | 1 to 32 (≈ 2.58 to 82.6 µM) | 1 to 32 (≈ 2.58 to 82.6 µM) | > 32 | 1 to 32 (≈ 2.58 to 82.6 µM) | > 32 | 1 to 32 (≈ 2.58 to 82.6 µM) |  |
| C[C@H]1COc2c(N3CC[C@@H]([C@@H](N)C4CC4)C3)c(F)cc3cc(C(=O)O)c(=O)n1c23 [Example 1.52, (S)-10-((R)-3-((S)-amino(cyclopropyl)methyl)pyrrolidin-1-yl)-9-fluoro-3-methyl-5-oxo-2,3-dihydro-5H-[1,4]oxazino[2,3,4-ij]quinoline-6-carboxylic acid] | < 1 | < 1 | < 1 | > 32 | < 1 | 1 to 32 (≈ 2.49 to 79.7 µM) | < 1 |  |
| C[C@H](N)[C@@H]1CCN(c2cc(F)c3cc(C(=O)O)c(=O)n4c3c2OC[C@@H]4C)C1 [Example 12.2, (S)-10-((R)-3-((S)-1-aminoethyl)pyrrolidin-1-yl)-8-fluoro-3-methyl-5-oxo-2,3-dihydro-5H-[1,4]oxazino[2,3,4-ij]quinoline-6-carboxylic acid] | < 1 | 1 to 32 (≈ 2.66 to 85.2 µM) | 1 to 32 (≈ 2.66 to 85.2 µM) | 1 to 32 (≈ 2.66 to 85.2 µM) | < 1 | 1 to 32 (≈ 2.66 to 85.2 µM) | < 1 |  |
| C[C@H]1COc2c(N3CCC4(CC3)CC(N)C4)c(F)cc3cc(C(=O)O)c(=O)n1c23 [Example 1.30, (S)-10-(2-amino-7-azaspiro[3.5]nonan-7-yl)-9-fluoro-3-methyl-5-oxo-2,3-dihydro-5H-[1,4]oxazino[2,3,4-ij]quinoline-6-carboxylic acid] | 1 to 32 (≈ 2.49 to 79.7 µM) | > 32 | > 32 | > 32 | 1 to 32 (≈ 2.49 to 79.7 µM) | > 32 | 1 to 32 (≈ 2.49 to 79.7 µM) |  |
| Cc1c(F)c(N2CC[C@@H](C3(N)CC3)C2)c2c3c1cc(C(=O)O)c(=O)n3[C@@H](C)CO2 [Example 22, (S)-10-((R)-3-(1-aminocyclopropyl)pyrrolidin-1-yl)-9-fluoro-3,8-dimethyl-5-oxo-2,3-dihydro-5H-[1,4]oxazino[2,3,4-ij]quinoline-6-carboxylic acid] | < 1 | 1 to 32 (≈ 2.49 to 79.7 µM) | < 1 | > 32 | < 1 | 1 to 32 (≈ 2.49 to 79.7 µM) | < 1 |  |
| CC1Cc2c(N3CC[C@@H]([C@H](C)N)C3)c(F)cc3cc(C(=O)O)c(=O)n1c23 (some centres unmarked) [Example 9.2] | < 1 | 1 to 32 (≈ 2.78 to 89 µM) | 1 to 32 (≈ 2.78 to 89 µM) | > 32 | < 1 | > 32 | < 1 |  |
| C[C@H]1COc2c(N3CC4CC(N)C4C3)c(F)cc3cc(C(=O)O)c(=O)n1c23 (single isomer, unassigned) [Example 1.62] | 1 to 32 (≈ 2.68 to 85.7 µM) | > 32 | > 32 | > 32 | > 32 | > 32 | > 32 |  |
| CNC1([C@@H]2CCN(c3c(F)cc4cc(C(=O)O)c(=O)n5c4c3OC[C@@H]5C)C2)CC1 [Example 1.12, (S)-9-fluoro-3-methyl-10-((R)-3-(1-(methylamino)cyclopropyl)pyrrolidin-1-yl)-5-oxo-2,3-dihydro-5H-[1,4]oxazino[2,3,4-ij]quinoline-6-carboxylic acid] | < 1 | 1 to 32 (≈ 2.49 to 79.7 µM) | 1 to 32 (≈ 2.49 to 79.7 µM) | > 32 | < 1 | 1 to 32 (≈ 2.49 to 79.7 µM) | 1 to 32 (≈ 2.49 to 79.7 µM) |  |
| C[C@H]1COc2c(N3CC4CC4(N)C3)c(F)cc3ccc(=O)n1c23 (stereo partly drawn) [Example 6.2, (3S)-10-(1-amino-3-azabicyclo[3.1.0]hexan-3-yl)-9-fluoro-3-methyl-2,3-dihydro-5H-[1,4]oxazino[2,3,4-ij]quinolin-5-one hydrochloride salt] | 1 to 32 | 1 to 32 | < 1 | > 32 | 1 to 32 | 1 to 32 | 1 to 32 |  |
